Measurements as given in patent publication US20220380309A1, “CHOLINE METABOLISM INHIBITORS” (President and Fellows of Harvard College, priority 2018, published 2022).
Like-named read-outs stand apart in the source and are kept apart here. One block for each molecule: values may come before it.

Assays:
E. coli MS 200-1 = experiment: Inhibition of TMA production in whole cells (LC-MS/MS assay for choline TMA-lyase activity, d9-TMA from d9-choline); assay type: cell-based
E. coli MS69-1 = experiment: Choline TMA-lyase activity (TMA generation) in cut gene cluster-harboring bacteria; assay type: cell-based, Escherichia coli; conditions: 1 mM choline-d9, 3.5 hours, 37° C., read-out: EC50 against E. coli MS69-1
P. mirabilis ATCC 29906 = experiment: as above; assay type: cell-based, Proteus mirabilis; conditions: 1 mM choline-d9, 3.5 hours, 37° C., read-out: EC50 against P. mirabilis ATCC 29906
Klebsiella sp. MS92-3 = experiment: as above; assay type: cell-based; conditions: 1 mM choline-d9, 3.5 hours, 37° C., read-out: EC50 against Klebsiella sp. MS92-3
fecal sample = experiment: Choline TMA-lyase activity in a fecal suspension ex vivo; assay type: cell-based; conditions: TMA generation, fecal sample 1:10 in Mega media, 1 mM choline-d9, 18 h, 37° C.; read-out: EC50 against fecal sample
CutC = CutC (Oleidesulfovibrio alaskensis, UniProt Q30W70); experiment: biochemical; assay type: biochemical
Chain of CutC (Q30W70 whole entry): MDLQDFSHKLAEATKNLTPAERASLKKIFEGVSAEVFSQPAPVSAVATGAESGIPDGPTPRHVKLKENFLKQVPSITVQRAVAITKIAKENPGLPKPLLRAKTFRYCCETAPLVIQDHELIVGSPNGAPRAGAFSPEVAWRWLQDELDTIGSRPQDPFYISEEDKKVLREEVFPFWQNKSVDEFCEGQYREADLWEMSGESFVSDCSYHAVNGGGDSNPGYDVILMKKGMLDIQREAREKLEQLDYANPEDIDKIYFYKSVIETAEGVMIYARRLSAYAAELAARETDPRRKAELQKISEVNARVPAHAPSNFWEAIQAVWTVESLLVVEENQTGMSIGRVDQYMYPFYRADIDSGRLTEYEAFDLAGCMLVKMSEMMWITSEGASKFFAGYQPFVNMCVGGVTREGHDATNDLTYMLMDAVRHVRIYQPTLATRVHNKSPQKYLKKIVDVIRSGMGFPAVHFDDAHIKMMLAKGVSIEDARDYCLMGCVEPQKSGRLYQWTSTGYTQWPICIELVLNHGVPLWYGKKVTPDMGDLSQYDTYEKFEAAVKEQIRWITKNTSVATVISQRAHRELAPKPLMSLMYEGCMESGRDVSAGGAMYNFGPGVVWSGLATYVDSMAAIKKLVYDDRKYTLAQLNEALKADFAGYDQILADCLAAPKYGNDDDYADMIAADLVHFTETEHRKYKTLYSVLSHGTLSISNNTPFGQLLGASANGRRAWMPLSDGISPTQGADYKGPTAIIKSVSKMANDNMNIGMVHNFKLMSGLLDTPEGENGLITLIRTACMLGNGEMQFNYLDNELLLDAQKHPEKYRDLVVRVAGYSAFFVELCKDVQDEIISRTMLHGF

[1] = Escherichia coli, MS2001, Table 3, TMA generation, 1 mM choline-d9, anaerobic, 3.5 h, 37° C., read-out: EC50 against E. coli MS200-1
[2] = Escherichia coli, MS2001, Table 2, inhibition of TMA-d9 production, 1 mM choline-d9, anaerobic, 3.5 hrs, 37° C., read-out: EC50
[3] = Escherichia coli, MS2001, 3.5 h, read-out: EC50 against E. coli MS200-1
[4] = Table 3, TMA generation, 1 mM choline-d9, anaerobic, 3.5 h, 37° C., read-out: EC50 against E. coli MS200-1

SMILES: CN1CCC(O)CC1 [drawing 108]
EC50 (E. coli MS 200-1; [1]): 4470 µM

SMILES: OC1C=CCN(CC2CC2)C1 (stereo not shown) [drawing 120]
EC50 (E. coli MS 200-1; [1]): 252 µM

SMILES: OC1C=CCN(C2CCCC2)C1 (stereo not shown) [Compound 2]
EC50 (E. coli MS 200-1; [2]): 54 µM

SMILES: CCCN1CC=CC(O)C1 (stereo not shown) [drawing 118]
EC50 (E. coli MS 200-1; [1]): 196 µM

SMILES: CN1CCCC(O)CC1 (stereo not shown) [drawing 109]
EC50 (E. coli MS 200-1; [3]): 762 µM

EC50 (E. coli MS69-1): 27 µM
EC50 (P. mirabilis ATCC 29906): 97 µM
EC50 (Klebsiella sp. MS92-3): 5 µM
EC50 (fecal sample): 78 µM
SMILES: CN1CC=CC(O)C1 (stereo not shown) [drawing 203]

SMILES: OC1C=CCN(Cc2ccccc2)C1 (stereo not shown) [drawing 190]
IC50 (CutC; read-out: IC50 CutC): 100 µM

SMILES: OC1C=CCN(C2CCC2)C1 (stereo not shown) [drawing 137]
EC50 (E. coli MS 200-1; [1]): 192 µM

SMILES: CN1CCCC1CO (stereo not shown) [drawing 200]
IC50 (CutC): 513 µM

EC50 (E. coli MS 200-1; [1]): 213 µM
SMILES: O[C@@H]1C=CCN(Cc2cccs2)C1

EC50 (E. coli MS 200-1; [1]): 112 µM
SMILES: O[C@H]1C=CCOC1

EC50 (E. coli MS 200-1; [1]): 191 µM
SMILES: O[C@H]1C=CCN(Cc2cccs2)C1

SMILES: CN1CCCC(O)CC1 (stereo not shown) [drawing 180]
IC50 (CutC; read-out: IC50 CutC): 2600 µM

SMILES: OC1C=CCN(C2CCCCCC2)C1 (stereo not shown) [drawing 160]
EC50 (E. coli MS 200-1; [1]): 24 µM

EC50 (E. coli MS69-1): 64 µM
EC50 (P. mirabilis ATCC 29906): 366 µM
EC50 (Klebsiella sp. MS92-3): 17 µM
SMILES: CN1CC=C[C@@H](O)C1 [drawing 205]

SMILES: CN1CCC(O)C1 (stereo not shown) [drawing 102]
EC50 (E. coli MS 200-1; [1]): 6300 µM

EC50 (E. coli MS 200-1; [1]): 319 µM
SMILES: O[C@H]1C=CCN(CC2CC2)C1

EC50 (E. coli MS 200-1; [4]): 27000 µM
SMILES: CN1CCCC(=O)C1 [drawing 107]

SMILES: CC1CCCCC1N1CC=C[C@H](O)C1 (stereo partly shown) [Compound 10]
EC50 (E. coli MS 200-1; [2]): 1.2 µM

EC50 (E. coli MS 200-1; [2]): 280 µM
SMILES: CN1CCC[C@H]1CO [Compound 20]

SMILES: OC1C=CCOC1 (stereo not shown) [Compound 22]
EC50 (E. coli MS 200-1; [2]): 25 µM

SMILES: OC1C=CCN(C2CCCCC2)C1 (stereo not shown) [drawing 150]
EC50 (E. coli MS 200-1; [1]): 22 µM

SMILES: CC1CCCCC1N1CC=C[C@@H](O)C1 (stereo partly shown) [drawing 155]
EC50 (E. coli MS 200-1; [1]): 68 µM

EC50 (E. coli MS 200-1; Table 2, inhibition of TMA-d9 production, 1 mM choline-d9, anaerobic, 3.5 hrs, 37° C., read-out: EC50): 10 µM
SMILES: CN1CC=C[C@H](O)C1 [Compound 12]

SMILES: OC1C=CCN(C2CCCCCC2)C1 (stereo not shown) [Compound 4]
EC50 (E. coli MS 200-1; [2]): 24 µM

EC50 (E. coli MS69-1): 22 µM
EC50 (P. mirabilis ATCC 29906): 92 µM
EC50 (Klebsiella sp. MS92-3): 4 µM
EC50 (fecal sample): 60 µM
SMILES: CN1CC=C[C@H](O)C1 [drawing 204]

EC50 (E. coli MS 200-1; [1]): 120 µM
SMILES: CN1CCCCC1CO (stereo not shown)

EC50 (E. coli MS 200-1; [4]): 10 µM
SMILES: CN1CC=CC(O)C1 (stereo not shown) [drawing 110]

EC50 (E. coli MS 200-1; [1]): 2100 µM
SMILES: C[N+]1(C)CC[C@@H](O)C1

SMILES: CC1CCCC1N1CC=C[C@H](O)C1 (stereo partly shown) [drawing 144]
EC50 (E. coli MS 200-1; [3]): 9 µM

SMILES: CC1CCCC1N1CC=CC(O)C1 (stereo not shown) [drawing 193]
inhibition at 10 μM (CutC): No inhibition at 10 μM

SMILES: O[C@@H]1C=CCN(C2CCCC2)C1
EC50 (E. coli MS 200-1; [1]): 62 µM

SMILES: CCCN1CC=CC(O)C1 (stereo not shown) [drawing 187]
IC50 (CutC; read-out: IC50 CutC): 141 µM

EC50 (E. coli MS 200-1; [1]): 1790 µM
SMILES: CC(=O)OC1C=CCN(C)C1 (stereo not shown)

EC50 (E. coli MS 200-1; [1]): 22 µM
SMILES: C[N+]1(C)CC=C[C@@H](O)C1

SMILES: OC1C=CCN(C2CCSC2)C1 (stereo not shown)
EC50 (E. coli MS 200-1; [1]): 173 µM

SMILES: O[C@@H]1C=CCN(C2CCCCC2)C1 [drawing 152]
EC50 (E. coli MS 200-1; [1]): 108 µM

EC50 (E. coli MS 200-1; [4]): 31 µM
SMILES: CN1CC=C[C@@H](O)C1 [drawing 113]

SMILES: CN1CCCC1CO (stereo not shown) [drawing 170]
EC50 (E. coli MS 200-1; [1]): 298 µM

SMILES: CC1CCCC1N1CC=C[C@@H](O)C1 (stereo partly shown) [drawing 195]
inhibition at 10 μM (CutC): No inhibition at 10 μM

EC50 (E. coli MS 200-1; [1]): 9 µM
SMILES: C[N+]1(C)CC=C[C@H](O)C1

SMILES: CN1CCC(O)CC1 [drawing 179]
IC50 (CutC; read-out: IC50 CutC): 7010 µM

SMILES: OC1C=CCOC1 (stereo not shown) [drawing 167]
EC50 (E. coli MS 200-1; [1]): 80 µM

EC50 (E. coli MS 200-1; [1]): 84 µM
SMILES: O[C@@H]1C=CCOC1

SMILES: OC1C=CCN(C2CCCC2)C1 (stereo not shown) [drawing 140]
EC50 (E. coli MS 200-1; [1]): 42 µM

EC50 (E. coli MS 200-1; [1]): 1820 µM
SMILES: CN1CCC[C@@H]1CO [drawing 172]

SMILES: OC1C=CCN(CC2CCCCC2)C1 (stereo not shown) [drawing 189]
IC50 (CutC): 24 µM

SMILES: OC1C=CCCC1 (stereo not shown) [drawing 162]
EC50 (E. coli MS 200-1; [3]): 259 µM

SMILES: OC1C=CCCC1 (stereo not shown) [drawing 198]
IC50 (CutC; read-out: IC50 CutC): 709 µM

EC50 (E. coli MS 200-1; [1]): 225 µM
SMILES: OC1C=CCN(Cc2cccs2)C1 (stereo not shown)

SMILES: O[C@H]1C=CCN(C2CCCCC2)C1 [drawing 151]
EC50 (E. coli MS 200-1; [1]): 14 µM

EC50 (E. coli MS 200-1; [1]): 260 µM
SMILES: OC1C=CCN(Cc2ccsc2)C1 (stereo not shown)

SMILES: CC(C)N1CC=CC(O)C1 (stereo not shown) [drawing 136]
inhibition at 3000 µM (E. coli MS 200-1; Escherichia coli, MS2001, Table 3, TMA generation of E. coli MS200-1, 3 mM compound): 83%

SMILES: C=CC(O)CN(C)C (stereo not shown) [drawing 201]
IC50 (CutC): 23 µM

SMILES: CC1CCC(N2CC=CC(O)C2)CC1 (stereo not shown)
EC50 (E. coli MS 200-1; [1]): 42 µM

EC50 (E. coli MS 200-1; [4]): 10 µM
SMILES: CN1CC=C[C@H](O)C1 [drawing 112]

SMILES: OC1C=CCN(C2CCCC2Cl)C1 (stereo not shown)
EC50 (E. coli MS 200-1; [3]): 52 µM

SMILES: COC1CCCCC1N1CC=CC(O)C1 (stereo not shown)
inhibition at 100 µM (E. coli MS 200-1; Escherichia coli, MS2001, Table 3, TMA generation of E. coli MS200-1, 100 μM compound): 40%

SMILES: CC1CCCCC1N1CC=C[C@@H](O)C1 (stereo partly shown) [Compound 9]
EC50 (E. coli MS 200-1; [2]): 68 µM
